# Measured values as given in patent US20240116985A1, “STAPLED PEPTIDES AND METHODS THEREOF” (priority 2020, published 2024).
# Where two headings read alike, the source gives them in different places.
# Tests used:
# [1] = molecular target: T1, full-length beta-Catenin (Uniprot ID P35222) (Homo sapiens, UniProt P35222); assay: Fluorescence polarization IC50 (beta-catenin / 5FAM-TCF4 10-53 competition); format: binding
# T1 construct: 10 nM full-length beta-Catenin (Uniprot ID P35222)
# T1 sequence (P35222 1-781): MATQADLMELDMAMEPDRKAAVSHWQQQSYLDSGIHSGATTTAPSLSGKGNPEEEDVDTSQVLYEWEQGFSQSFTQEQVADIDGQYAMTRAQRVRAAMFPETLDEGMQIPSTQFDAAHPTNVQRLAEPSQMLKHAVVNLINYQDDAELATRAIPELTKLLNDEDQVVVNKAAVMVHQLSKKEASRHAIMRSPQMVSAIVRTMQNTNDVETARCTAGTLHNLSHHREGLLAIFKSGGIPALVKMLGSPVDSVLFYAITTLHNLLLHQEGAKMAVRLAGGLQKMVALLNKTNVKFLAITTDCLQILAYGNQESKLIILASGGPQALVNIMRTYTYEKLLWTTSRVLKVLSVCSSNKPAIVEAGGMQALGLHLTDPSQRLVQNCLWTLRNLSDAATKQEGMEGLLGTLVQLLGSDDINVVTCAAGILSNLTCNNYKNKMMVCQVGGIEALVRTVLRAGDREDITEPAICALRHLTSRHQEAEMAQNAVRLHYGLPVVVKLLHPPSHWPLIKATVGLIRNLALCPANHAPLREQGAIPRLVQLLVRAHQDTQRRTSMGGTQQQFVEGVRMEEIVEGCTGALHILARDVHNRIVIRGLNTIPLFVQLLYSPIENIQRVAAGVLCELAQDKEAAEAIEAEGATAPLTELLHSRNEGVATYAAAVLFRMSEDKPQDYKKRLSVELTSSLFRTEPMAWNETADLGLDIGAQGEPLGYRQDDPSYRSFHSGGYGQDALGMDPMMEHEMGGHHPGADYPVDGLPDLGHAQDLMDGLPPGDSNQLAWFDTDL
# CHI Log D procedure = format: physicochemical; conditions: for CHI Log D: pH 7.4; for chromatographic logD: pH 7.4, CHI Log D
# [2] = fluorescence polarization, read-out: beta-Catenin FP IC50
# [3] = Table E2-1, read-out: beta-Catenin FP IC50
# [4] = fluorescence polarization, beta-catenin, read-out: FP EC50
SMILES,"IC50 [1, 2] [nM]",IC50 ([1]; read-out: FP EC50) [nM],CHI Log D (CHI Log D procedure),chromatographic logD (CHI Log D procedure),"IC50 [1, 3] [nM]","IC50 [1, 4] [nM]",IC50 ([1]; read-out: beta-Catenin FP IC50) [nM]
"CCCC[C@@H]1NC(=O)[C@H](C)NC(=O)[C@H](CCC(=O)O)NC(=O)[C@H](CC(=O)O)NC(=O)C2(CCCC=CCCCCCC[C@@](C)(C(=O)N[C@@H](Cc3ccccc3)C(=O)N[C@@H](Cc3csc4ccccc34)C(=O)N[C@@H](CCC(N)=O)C(N)=O)NC(=O)[C@H](CCC(N)=O)NC(=O)[C@H](Cc3ccccc3)NC1=O)CCCC=CC[C@]1(CCCN1C(C)=O)C(=O)N[C@@H](CC(=O)O)C(=O)N[C@@H]([C@@H](C)CC)C(=O)N2 (stereo partly drawn) [I-667, Ac-PL3-Asp-Ile-B5-Asp-Glu-Ala-nLeu-Phe-Gln-S8-Phe-BztA-Gln-NH2]",585,585,2.88,,,,
"CC[C@H](C)[C@@H]1NC(=O)[C@H](CC(=O)O)NC(=O)[C@]2(CC=CCCCC3(CCCC=CCCCCCC[C@@](C)(C(=O)N[C@@H](Cc4ccccc4)C(=O)N[C@@H](Cc4csc5ccccc45)C(=O)N[C@@H](CCN)C(N)=O)NC(=O)[C@H](CCC(N)=O)NC(=O)[C@H](Cc4ccccc4)NC(=O)[C@H](C)NC(=O)[C@H](C)NC(=O)[C@H](CC(=O)O)NC(=O)[C@H](CC(=O)O)NC3=O)NC1=O)CCCN2C(C)=O (stereo partly drawn) [I-482, Ac-PL3-Asp-Ile-B5-Asp-Asp-Ala-Ala-Phe-Gln-S8-Phe-BztA-Dab-NH2]",118,,,2.48,,,
"CC(=O)N1CCC[C@]12CC=CCCCC1(CCCC=CCCCCCC[C@@](C)(C(=O)N[C@@H](Cc3ccccc3)C(=O)N[C@@H](Cc3csc4ccccc34)C(=O)N[C@@H](CCC(N)=O)C(N)=O)NC(=O)[C@H](CC(N)=O)NC(=O)[C@H](Cc3ccccc3)NC(=O)[C@H](C)NC(=O)[C@H](C)NC(=O)[C@H](CC(=O)O)NC(=O)[C@H](CC(=O)O)NC1=O)NC(=O)[C@H](CCC(C)C)NC(=O)[C@H](CC(=O)O)NC2=O (stereo partly drawn) [I-547, Ac-PL3-Asp-hLeu-B5-Asp-Asp-Ala-Ala-Phe-Asn-S8-Phe-BztA-Gln-NH2]",43,43,2.45,,,,
"CC[C@H](C)[C@@H]1NC(=O)[C@H](CC(=O)O)NC(=O)[C@]2(CC=CCCCC3(CCCC=CCCCCCC[C@@](C)(C(=O)N[C@@H](Cc4ccsc4)C(=O)N[C@@H](Cc4csc5ccccc45)C(=O)N[C@@H](CCC(N)=O)C(N)=O)NC(=O)[C@H](CC(N)=O)NC(=O)[C@H](Cc4ccccc4)NC(=O)[C@H](C)NC(=O)[C@H](C)NC(=O)[C@H](CN(CC(=O)O)CC(F)(F)F)NC(=O)[C@H](CC(=O)O)NC3=O)NC1=O)CCCN2C(C)=O (stereo partly drawn) [I-700, Ac-PL3-Asp-Ile-B5-Asp-TfeGA-Ala-Ala-Phe-Asn-S8-3Thi-BztA-Gln-NH2]",49,49,2.607,,,,
"CC(=O)N1CCC[C@]12CC=CCCCC1(CCCC=CCCCCCC[C@@](C)(C(=O)N[C@@H](Cc3ccccc3)C(=O)N[C@@H](Cc3c[nH]c4ccccc34)C(=O)N[C@@H](CCC(N)=O)C(N)=O)NC(=O)[C@H](C(C)C)NC(=O)[C@H](Cc3ccccc3)NC(=O)[C@H](C)NC(=O)[C@H](C)NC(=O)[C@H](CC(N)=O)NC(=O)[C@H](CC(=O)O)NC1=O)NC(=O)[C@H](C)NC(=O)[C@H](CC(=O)O)NC2=O (stereo partly drawn) [I-125, Ac-PL3-Asp-Ala-B5-Asp-Asn-Ala-Ala-Phe-Val-S8-Phe-Trp-Gln-NH2]",,,2.256,,3060,3060,
"CC(=O)N1CCC[C@]12CC=CCCCC1(CCCC=CCCCCCC[C@@](C)(C(=O)N[C@@H](Cc3ccccc3)C(=O)N[C@@H](Cc3c[nH]c4ccccc34)C(=O)N[C@@H](C)C(N)=O)NC(=O)[C@H](C(C)C)NC(=O)[C@H](Cc3ccccc3)NC(=O)[C@H](C)NC(=O)[C@H](C)NC(=O)[C@H](CCC(=O)O)NC(=O)[C@H](CC(=O)O)NC1=O)NC(=O)[C@H](C)NC(=O)[C@H](CC(=O)O)NC2=O (stereo partly drawn) [I-135, Ac-PL3-Asp-Ala-B5-Asp-Glu-Ala-Ala-Phe-Val-S8-Phe-Trp-Ala-NH2]",,,,2.18,1870,,
"CC(=O)N1CCC[C@]12CC=CCCCC1(CCCC=CCCCCCC[C@@](C)(C(=O)N[C@@H](Cc3ccccc3)C(=O)N[C@@H](Cc3c[nH]c4ccccc34)C(=O)N[C@@H](CCC(N)=O)C(N)=O)NC(=O)[C@H](C(C)C)NC(=O)[C@H](Cc3ccccc3F)NC(=O)[C@H](C)NC(=O)[C@H](C)NC(=O)[C@H](CC(=O)O)NC(=O)[C@H](CC(=O)O)NC1=O)NC(=O)[C@H](C)NC(=O)[C@H](CC(=O)O)NC2=O (stereo partly drawn) [I-317, Ac-PL3-Asp-Ala-B5-Asp-Asp-Ala-Ala-2FF-Val-S8-Phe-Trp-Gln-NH2]",,,,2.02,5000,,
"CC(=O)N1CCC[C@]12CC=CCCCC1(CCCC=CCCCCCC[C@@](C)(C(=O)N[C@@H](Cc3ccccc3)C(=O)N[C@@H](Cc3csc4ccccc34)C(=O)N(C)[C@@H](CO)C(N)=O)NC(=O)[C@H](CC(N)=O)NC(=O)[C@H](Cc3ccccc3)NC(=O)[C@H](C)NC(=O)[C@H](C)NC(=O)[C@H](CCC(=O)O)NC(=O)[C@H](CC(=O)O)NC1=O)NC(=O)[C@H](CC(C)C)NC(=O)[C@H](CC(=O)O)NC2=O (stereo partly drawn) [I-760, Ac-PL3-Asp-Leu-B5-Asp-Glu-Ala-Ala-Phe-Asn-S8-Phe-BztA-NMeS-NH2]",,608,2.66,,,,608
"CC(=O)N1CCC[C@]12CC=CCCCC1(CCCC=CCCCCCC[C@@](C)(C(=O)N[C@@H](Cc3ccccc3)C(=O)N[C@@H](Cc3csc4ccccc34)C(=O)N[C@@H](CCC(N)=O)C(N)=O)NC(=O)[C@H](CC(N)=O)NC(=O)[C@H](Cc3cccc(C)c3)NC(=O)[C@H](C)NC(=O)[C@H](C)NC(=O)[C@H](CCC(=O)O)NC(=O)[C@H](CC(=O)O)NC1=O)NC(=O)[C@H](C)NC(=O)[C@H](CC(=O)O)NC2=O (stereo partly drawn) [I-458, Ac-PL3-Asp-Ala-B5-Asp-Glu-Ala-Ala-3MeF-Asn-S8-Phe-BztA-Gln-NH2]",102,,,2.07,,,
"CC(=O)N1CCC[C@]12CC=CCCCC1(CCCC=CCCCCCC[C@@](C)(C(=O)N[C@@H](Cc3cccc(F)c3)C(=O)N[C@@H](Cc3csc4ccccc34)C(=O)N[C@@H](CCC(N)=O)C(N)=O)NC(=O)[C@H](CCC(N)=O)NC(=O)[C@H](Cc3cccc(C)c3)NC(=O)[C@H](C)NC(=O)[C@H](C)NC(=O)[C@H](CN(CC(=O)O)CC(F)(F)F)NC(=O)[C@H](CC(=O)O)NC1=O)NC(=O)[C@H](C)NC(=O)[C@H](CC(=O)O)NC2=O (stereo partly drawn) [I-404, Ac-PL3-Asp-Ala-B5-Asp-TfeGA-Ala-Ala-3MeF-Gln-S8-3FF-BztA-Gln-NH2]",1850,,,2.4,,,
"CC(=O)N1CCC[C@]12CC=CCCCC1(CCCC=CCCCCCC[C@@](C)(C(=O)N[C@@H](Cc3ccccc3)C(=O)N[C@@H](Cc3csc4ccccc34)C(=O)N[C@H](C(N)=O)[C@@H](C)O)NC(=O)[C@H](CC(N)=O)NC(=O)[C@H](Cc3ccccc3)NC(=O)[C@H](C)NC(=O)[C@H](C)NC(=O)[C@H](CCC(=O)O)NC(=O)[C@H](CC(=O)O)NC1=O)NC(=O)[C@H](CC(C)C)NC(=O)[C@H](CC(=O)O)NC2=O (stereo partly drawn) [I-748, Ac-PL3-Asp-Leu-B5-Asp-Glu-Ala-Ala-Phe-Asn-S8-Phe-BztA-Thr-NH2]",54,54,2.459,,,,
"CC[C@H](C)[C@H](NC(=O)[C@H](CCC(N)=O)NC(=O)[C@H](Cc1csc2ccccc12)NC(=O)[C@H](Cc1ccccc1)NC(=O)[C@]1(C)CCCCCCC=CCCCC2(CCCC=CC[C@]3(CCCN3C(C)=O)C(=O)N[C@@H](CC(=O)O)C(=O)N[C@@H](CC(C)C)C(=O)N2)C(=O)N[C@@H](CC(=O)O)C(=O)N[C@@H](CCC(=O)O)C(=O)N[C@@H](C)C(=O)N[C@@H](C)C(=O)N[C@@H](Cc2ccccc2)C(=O)N[C@@H](CC(N)=O)C(=O)N1)C(N)=O (stereo partly drawn) [I-732, Ac-PL3-Asp-Leu-B5-Asp-Glu-Ala-Ala-Phe-Asn-S8-Phe-BztA-Gln-Ile-NH2]",4220,4220,2.121,,,,
"CC(=O)N1CCC[C@]12CC=CCCCC1(CCCC=CCCCOC(=O)N3CC[C@@](C(=O)N[C@@H](Cc4ccsc4)C(=O)N[C@@H](Cc4csc5ccccc45)C(=O)N[C@@H](CCC(N)=O)C(N)=O)(C3)NC(=O)[C@H](CO)NC(=O)[C@H](Cc3ccccc3)NC(=O)[C@H](C)NC(=O)[C@H](C)NC(=O)[C@H](Cc3cccc(C(=O)O)c3)NC(=O)[C@H](CC(=O)O)NC1=O)NC(=O)[C@H](CC(C)(C)C)NC(=O)[C@H](CC(=O)O)NC2=O (stereo partly drawn) [I-979, Ac-PL3-Asp-Npg-B5-Asp-3COOHF-Ala-Ala-Phe-Ser-PyrS2-3Thi-BztA-Gln-NH2]",,,1.809,,,240,240
"CC(=O)N1CCC[C@]12CC=CCCCC1(CCCC=CCCCOC(=O)N3CC[C@@](C(=O)N[C@@H](Cc4ccsc4)C(=O)N[C@@H](Cc4csc5ccccc45)C(=O)N[C@@H](CCC(N)=O)C(N)=O)(C3)NC(=O)[C@H](CCC(N)=O)NC(=O)[C@H](Cc3ccccc3)NC(=O)[C@H](C)NC(=O)[C@H](C)NC(=O)[C@H](CC(=O)O)NC(=O)[C@H](CC(=O)O)NC1=O)NC(=O)[C@H](CC(C)(C)C)NC(=O)[C@H](CC(=O)O)NC2=O (stereo partly drawn) [I-763, Ac-PL3-Asp-Npg-B5-Asp-Asp-Ala-Ala-Phe-Gln-PyrS2-3Thi-BztA-Gln-NH2]",,,1.967,,,,5
